In the OligoGym collection:
HELM strings list units from the 5' end as sugar, base in round brackets, then linkage (d deoxyribose, r ribose, m 2'-O-methyl, p phosphodiester). Strings are as the collection lists them; they lack the last nucleoside at the 3' end of the tested compound. [moe] = 2'-O-(2-methoxyethyl) (MOE); [sp] = phosphorothioate linkage; [m5C] = 5-methylcytosine

target: UBE3A-ATS; assay: mouse, dose not given; details: ASO

Substance	3 h FOB score [score 0-7]
RNA1{[moe]([m5C])[sp].[moe](A)p.[moe](G)p.[moe](T)p.[moe](T)p.[moe](A)p.d(G)[sp].d(G)[sp].d(T)[sp].d(T)[sp].d(A)[sp].d(G)[sp].d(T)[sp].d(G)[sp].d([m5C])[sp].d(A)[sp].[moe]([m5C])p.[moe](A)[sp].[moe](G)}$$$$ (last 3' nucleoside missing)	5.2
RNA1{[moe]([m5C])[sp].[moe](A)p.[moe](G)p.[moe](T)p.[moe](T)p.d(A)[sp].d(G)[sp].d(G)[sp].d(T)[sp].d(T)[sp].d(A)[sp].d(G)[sp].d(T)[sp].d(G)[sp].d([m5C])[sp].[moe](A)p.[moe]([m5C])p.[moe](A)[sp].[moe](G)}$$$$ (last 3' nucleoside missing)	6
RNA1{[moe]([m5C])[sp].[moe](A)p.[moe](G)p.[moe](T)p.[moe](T)p.d(G)[sp].d(T)[sp].d(G)[sp].d(T)[sp].d(A)[sp].d(T)[sp].d(T)[sp].d(G)[sp].d(A)[sp].d([m5C])[sp].[moe](T)p.[moe](A)p.[moe](A)[sp].[moe](G)}$$$$ (last 3' nucleoside missing)	4.8
RNA1{[moe]([m5C])[sp].[moe](A)p.[moe](G)p.[moe](T)p.[moe](T)p.d(T)[sp].d(T)[sp].d([m5C])[sp].d(G)[sp].d([m5C])[sp].d([m5C])[sp].d([m5C])[sp].d(G)[sp].d(T)[sp].d(T)[sp].[moe](A)p.[moe]([m5C])p.[moe]([m5C])[sp].[moe](T)}$$$$ (last 3' nucleoside missing)	5
RNA1{[moe]([m5C])[sp].[moe](A)p.[moe](G)p.[moe]([m5C])p.[moe]([m5C])p.d(A)[sp].d(G)[sp].d(G)[sp].d(T)[sp].d(G)[sp].d(T)[sp].d([m5C])[sp].d(T)[sp].d(T)[sp].d(A)[sp].[moe](T)p.[moe](A)p.[moe](T)[sp].[moe]([m5C])}$$$$ (last 3' nucleoside missing)	2.3
RNA1{[moe]([m5C])[sp].[moe](A)p.[moe](G)p.[moe]([m5C])p.[moe]([m5C])p.d(A)[sp].d([m5C])[sp].d(T)[sp].d(T)[sp].d(T)[sp].d(G)[sp].d([m5C])[sp].d(A)[sp].d(A)[sp].d([m5C])[sp].[moe](T)p.[moe]([m5C])p.[moe](A)[sp].[moe](A)}$$$$ (last 3' nucleoside missing)	6.2
RNA1{[moe]([m5C])[sp].[moe](A)p.[moe](T)p.[moe](A)[sp].d([m5C])[sp].d([m5C])[sp].d([m5C])[sp].d(A)[sp].d(G)[sp].d(G)[sp].d(G)[sp].d(T)[sp].[moe](A)p.[moe](G)p.[moe](G)p.[moe](A)[sp].[moe](T)}$$$$ (last 3' nucleoside missing)	1
RNA1{[moe]([m5C])[sp].[moe](A)p.[moe](T)p.[moe](A)p.[moe](T)p.d(A)[sp].d([m5C])[sp].d(T)[sp].d(A)[sp].d(A)[sp].d(A)[sp].d(T)[sp].d(G)[sp].d(T)[sp].d(T)[sp].[moe](G)p.[moe]([m5C])p.[moe]([m5C])[sp].[moe](G)}$$$$ (last 3' nucleoside missing)	1
RNA1{[moe]([m5C])[sp].[moe](A)p.[moe](T)p.[moe](A)p.[moe](T)p.d(G)[sp].d(A)[sp].d(A)[sp].d(G)[sp].d([m5C])[sp].d(T)[sp].d(A)[sp].d(T)[sp].d(A)[sp].d(G)[sp].[moe](G)p.[moe](T)p.[moe](A)[sp].[moe]([m5C])}$$$$ (last 3' nucleoside missing)	1
RNA1{[moe]([m5C])[sp].[moe](A)p.[moe](T)p.[moe](A)p.[moe]([m5C])[sp].d([m5C])[sp].d([m5C])[sp].d(A)[sp].d(G)[sp].d(G)[sp].d(G)[sp].d(T)[sp].d(A)[sp].[moe](G)p.[moe](G)p.[moe](A)[sp].[moe](T)}$$$$ (last 3' nucleoside missing)	1
RNA1{[moe]([m5C])[sp].[moe](A)p.[moe](T)p.[moe](A)p.[moe]([m5C])p.[moe]([m5C])[sp].d([m5C])[sp].d(A)[sp].d(G)[sp].d(G)[sp].d(G)[sp].d(T)[sp].d(A)[sp].d(G)[sp].[moe](G)p.[moe](A)[sp].[moe](T)}$$$$ (last 3' nucleoside missing)	2
RNA1{[moe]([m5C])[sp].[moe](A)p.[moe](T)p.[moe](G)p.[moe](T)p.d(G)[sp].d(G)[sp].d(G)[sp].d([m5C])[sp].d([m5C])[sp].d(T)[sp].d([m5C])[sp].d(T)[sp].d(A)[sp].d(T)[sp].[moe](T)p.[moe](A)p.[moe](A)[sp].[moe](G)}$$$$ (last 3' nucleoside missing)	4
RNA1{[moe]([m5C])[sp].[moe](A)p.[moe](T)p.[moe](T)p.[moe](A)p.d(T)[sp].d(T)[sp].d([m5C])[sp].d(A)[sp].d(A)[sp].d(T)[sp].d(T)[sp].d(A)[sp].d(A)[sp].d(G)[sp].[moe](G)p.[moe](G)p.[moe](T)[sp].[moe](G)}$$$$ (last 3' nucleoside missing)	4
RNA1{[moe]([m5C])[sp].[moe](A)p.[moe](T)p.[moe](T)p.[moe](A)p.d(T)[sp].d(T)[sp].d([m5C])[sp].d(T)[sp].d([m5C])[sp].d(T)[sp].d(A)[sp].d(G)[sp].d(T)[sp].d(G)[sp].[moe]([m5C])p.[moe]([m5C])p.[moe](T)[sp].[moe](A)}$$$$ (last 3' nucleoside missing)	4
RNA1{[moe]([m5C])[sp].[moe](A)p.[moe](T)p.[moe](T)p.[moe](G)p.d(G)[sp].d([m5C])[sp].d(T)[sp].d(T)[sp].d([m5C])[sp].d(A)[sp].d(T)[sp].d(A)[sp].d(T)[sp].d(T)[sp].[moe](T)p.[moe]([m5C])p.[moe](T)[sp].[moe]([m5C])}$$$$ (last 3' nucleoside missing)	0
RNA1{[moe]([m5C])[sp].[moe](A)p.[moe](T)p.[moe]([m5C])p.[moe](A)p.d(T)[sp].d(G)[sp].d(A)[sp].d(T)[sp].d([m5C])[sp].d(T)[sp].d(T)[sp].d(G)[sp].d(G)[sp].d(T)[sp].[moe](A)p.[moe](A)p.[moe](G)[sp].[moe](G)}$$$$ (last 3' nucleoside missing)	3
RNA1{[moe]([m5C])[sp].[moe](A)p.[moe](T)p.[moe]([m5C])p.[moe](T)p.d([m5C])[sp].d(G)[sp].d(G)[sp].d(G)[sp].d(T)[sp].d(A)[sp].d(T)[sp].d(A)[sp].d(T)[sp].d(A)[sp].[moe](A)p.[moe](A)p.[moe](T)[sp].[moe](T)}$$$$ (last 3' nucleoside missing)	2
RNA1{[moe]([m5C])[sp].[moe](A)p.[moe]([m5C])p.[moe](A)p.[moe](T)p.d(T)[sp].d(A)[sp].d([m5C])[sp].d([m5C])[sp].d([m5C])[sp].d(A)[sp].d(T)[sp].d([m5C])[sp].d([m5C])[sp].d(G)[sp].[moe](T)p.[moe](T)p.[moe]([m5C])[sp].[moe](T)}$$$$ (last 3' nucleoside missing)	0
RNA1{[moe]([m5C])[sp].[moe](A)p.[moe]([m5C])p.[moe](T)p.[moe](G)p.d(A)[sp].d(G)[sp].d(T)[sp].d(T)[sp].d(T)[sp].d(T)[sp].d(T)[sp].d(G)[sp].d(T)[sp].d(A)[sp].[moe](G)p.[moe](T)p.[moe](T)[sp].[moe]([m5C])}$$$$ (last 3' nucleoside missing)	4
RNA1{[moe]([m5C])[sp].[moe](A)p.[moe]([m5C])p.[moe](T)p.[moe]([m5C])p.d(A)[sp].d(T)[sp].d(T)[sp].d(T)[sp].d(T)[sp].d(G)[sp].d(T)[sp].d(T)[sp].d([m5C])[sp].d(A)[sp].[moe](G)p.[moe]([m5C])p.[moe](T)[sp].[moe](T)}$$$$ (last 3' nucleoside missing)	3
RNA1{[moe]([m5C])[sp].[moe](A)p.[moe]([m5C])p.[moe](T)p.[moe]([m5C])p.d(T)[sp].d(A)[sp].d(T)[sp].d(A)[sp].d(G)[sp].d(G)[sp].d(T)[sp].d(T)[sp].d([m5C])[sp].d(A)[sp].[moe](A)p.[moe](G)p.[moe]([m5C])[sp].[moe](A)}$$$$ (last 3' nucleoside missing)	4
RNA1{[moe]([m5C])[sp].[moe](A)p.[moe]([m5C])p.[moe]([m5C])p.[moe](T)p.d(A)[sp].d(G)[sp].d(G)[sp].d([m5C])[sp].d(T)[sp].d(G)[sp].d(G)[sp].d(G)[sp].d([m5C])[sp].d([m5C])[sp].[moe](T)p.[moe]([m5C])p.[moe](A)[sp].[moe](G)}$$$$ (last 3' nucleoside missing)	3.5
RNA1{[moe]([m5C])[sp].[moe](G)p.[moe](G)p.[moe](A)p.[moe]([m5C])p.d(A)[sp].d(G)[sp].d(T)[sp].d(G)[sp].d(T)[sp].d(T)[sp].d(G)[sp].d([m5C])[sp].d(T)[sp].d(G)[sp].[moe](T)p.[moe](T)p.[moe](A)[sp].[moe](G)}$$$$ (last 3' nucleoside missing)	6
RNA1{[moe]([m5C])[sp].[moe](G)p.[moe](G)p.[moe](G)p.[moe]([m5C])p.d(T)[sp].d(A)[sp].d(T)[sp].d(G)[sp].d(T)[sp].d(G)[sp].d(A)[sp].d(G)[sp].d(A)[sp].d(T)[sp].[moe](A)p.[moe](A)p.[moe](T)[sp].[moe](T)}$$$$ (last 3' nucleoside missing)	4
RNA1{[moe]([m5C])[sp].[moe](G)p.[moe](T)p.[moe](A)p.[moe](T)p.d(T)[sp].d(G)[sp].d(G)[sp].d(A)[sp].d([m5C])[sp].d([m5C])[sp].d(T)[sp].d(T)[sp].d(T)[sp].d([m5C])[sp].[moe](A)p.[moe](A)p.[moe](T)[sp].[moe](G)}$$$$ (last 3' nucleoside missing)	3.5
RNA1{[moe]([m5C])[sp].[moe](G)p.[moe](T)p.[moe](G)[sp].d(A)[sp].d(G)[sp].d([m5C])[sp].d(T)[sp].d(A)[sp].d(T)[sp].d([m5C])[sp].d(T)[sp].[moe](G)p.[moe](T)p.[moe](A)p.[moe]([m5C])[sp].[moe](A)}$$$$ (last 3' nucleoside missing)	1
